Type in all cases: functional, cell-based
The test system of one test is ASPC1. Kind of test: Antiproliferative activity against human ASPC1 cells assessed as reduction in cells assessed as reduction in cell growth incubated for 72 hrs by MTT assay. As to conditions: ASPC1, 72 h. (In general: Tetrazolium assays rely on reduction of a dye to a coloured formazan, in cell work by metabolically active cells.)
Another test has as its system A549. In words: Antiproliferative activity against human A549 cells assessed as reduction in cells assessed as reduction in cell growth incubated for 72 hrs by MTT assay. As to conditions: A549, 72 h.
The subject of a further test is NCI-H1975. Kind of test: Antiproliferative activity against human NCI-H1975 cells assessed as reduction in cells assessed as reduction in cell growth incubated for 72 hrs by MTT assay. Conditions: NCI-H1975, 72 h.
The next test concerns A-431. Kind of test: Antiproliferative activity against human A-431 cells assessed as reduction in cells assessed as reduction in cell growth incubated for 72 hrs by MTT assay. Conditions: A-431, 72 h.
The test system of a further test is HCT-116. In words: Antiproliferative activity against human HCT-116 cells assessed as reduction in cells assessed as reduction in cell growth incubated for 72 hrs by MTT assay. As to conditions: HCT-116, 72 h.
In another test the test system is HeLa. In words: Antiproliferative activity against human HeLa cells assessed as reduction in cell viability measured for 24 hrs by MTT assay.
For the next test, the system named is HepG2. Kind of test: Antiproliferative activity against human HepG2 cells assessed as reduction in cell viability measured for 24 hrs by MTT assay. As to conditions: HepG2, 24 h.

26 compounds from ChEMBL document CHEMBL6127100, “Plant based steroidal and triterpenoid sapogenins: Chemistry on diosgenin and biological aspects” (Eur J Med Chem, 2024) can be followed below.

A value given as a limit tells only on which side of the number the result lay.

Consider `C[C@@H]1CC[C@@]2(OC1)O[C@H]1C[C@H]3[C@@H]4CC=C5C[C@@H](OC(=O)CCCC[N+](C)(C)Cc6ccccc6)CC[C@]5(C)[C@H]4CC[C@]3(C)[C@H]1[C@@H]2C`, for which the IC50 (commonly the point on the concentration scale where inhibition reaches its midpoint) in the test with ASPC1 came out at 7.12 µM; in the test on A549, 5.3 µM; with NCI-H1975 it was 1.51 µM; with A-431 it was 1.85 µM.
Turning to `C[C@@H]1CC[C@@]2(OC1)O[C@H]1C[C@H]3[C@@H]4CC=C5C[C@@H]([N+](C)(C)CC#N)CC[C@]5(C)[C@H]4CC[C@]3(C)[C@H]1[C@@H]2C`, the IC50 was 19.3 µM in the test on ASPC1, 9.74 µM in the test with HCT-116, 20.6 µM in the test with NCI-H1975 and 8.25 µM in the test with A-431.
Turning to `C[C@@H](CO)CC[C@H]1O[C@H]2C[C@H]3[C@@H]4CC=C5C[C@@H](OC6=C(Cl)C(=O)c7ncccc7C6=O)CC[C@]5(C)[C@H]4CC[C@]3(C)[C@H]2[C@@H]1C`, the IC50 in the test on HeLa was found to be 6.36 µM.
As to `C[C@@H]1CC[C@@]2(OC1)O[C@H]1C[C@H]3[C@@H]4CC=C5C[C@@H]([N+](C)(CCO)CCO)CC[C@]5(C)[C@H]4CC[C@]3(C)[C@H]1[C@@H]2C`, the IC50 in the test with ASPC1 was determined as 17.8 µM; in the test on HCT-116, 11.5 µM; in the test with A549, 5.35 µM; in the test on A-431 it was 3.26 µM.
In the case of `C#CC[N+](C)(CC#C)[C@H]1CC[C@@]2(C)C(=CC[C@H]3[C@@H]4C[C@@H]5O[C@]6(CC[C@@H](C)CO6)[C@@H](C)[C@@H]5[C@@]4(C)CC[C@@H]32)C1`, the IC50 in the test on ASPC1 turned out to be 4.41 µM; with HCT-116, 4.71 µM; in the test on A549, 12.7 µM; in the test with NCI-H1975, 5.92 µM; in the test with A-431, 14.5 µM.
`C[C@@H]1CC[C@@]2(OC1)O[C@H]1C[C@H]3[C@@H]4CC=C5C[C@@H](OC(=O)CCCC[N+]67CCC(CC6)C(O)C7)CC[C@]5(C)[C@H]4CC[C@]3(C)[C@H]1[C@@H]2C` (some centres undefined): the IC50 in the test on ASPC1 was 4.46 µM; with A549, 4.07 µM; with NCI-H1975, 1.68 µM; in the test on A-431, 4.14 µM.
On to `C[C@@H]1CC[C@@]2(OC1)O[C@H]1C[C@H]3[C@@H]4CC=C5C[C@@H](OC(=O)CCCC[N+]6(C)CCOCC6)CC[C@]5(C)[C@H]4CC[C@]3(C)[C@H]1[C@@H]2C`, for which the IC50 in the test on ASPC1 was found to be 8.48 µM; with A549, 5.83 µM; in the test on NCI-H1975, 5.45 µM; with A-431, 5.88 µM.
With `C[C@@H]1CC[C@@]2(OC1)O[C@H]1C[C@H]3[C@@H]4CC=C5C[C@@H]([N+](C)(CCCCN6C(=O)c7ccccc7C6=O)CCCCN6C(=O)c7ccccc7C6=O)CC[C@]5(C)[C@H]4CC[C@]3(C)[C@H]1[C@@H]2C`, the IC50 with ASPC1 was determined as 4.78 µM; with HCT-116 it was 3.23 µM; in the test with A549, 10.7 µM; in the test with NCI-H1975, 9.17 µM; in the test with A-431, 4.33 µM.
For `COCC[N+](C)(CCOC)[C@H]1CC[C@@]2(C)C(=CC[C@H]3[C@@H]4C[C@@H]5O[C@]6(CC[C@@H](C)CO6)[C@@H](C)[C@@H]5[C@@]4(C)CC[C@@H]32)C1`, in that order: 55.3 µM, more than 1 µM, 6.33 µM, 5.09 µM and 2.85 µM.
For `C[C@@H]1CC[C@@]2(OC1)O[C@H]1C[C@H]3[C@@H]4CC=C5C[C@@H]([N+]6(C)CCCC6)CC[C@]5(C)[C@H]4CC[C@]3(C)[C@H]1[C@@H]2C`, in that order: 5.54 µM, 3.94 µM, 10.5 µM, 11.2 µM and 10.4 µM.
Turning to `C[C@@H]1CC[C@@]2(OC1)O[C@H]1C[C@H]3[C@@H]4CC=C5C[C@@H]([N+](C)(C)C)CC[C@]5(C)[C@H]4CC[C@]3(C)[C@H]1[C@@H]2C`, the IC50 with ASPC1 amounted to 9.44 µM; with HCT-116, 9.67 µM; in the test on A549 it was 15.2 µM; in the test with NCI-H1975, 19 µM; with A-431, 6.38 µM.
For `C[C@@H]1CC[C@@]2(OC1)O[C@H]1C[C@H]3[C@@H]4CC=C5C[C@@H](OC(=O)CCCC[N+]6(C)CCCCC6)CC[C@]5(C)[C@H]4CC[C@]3(C)[C@H]1[C@@H]2C`, the IC50 came out at 2.83 µM in the test on ASPC1, 5.83 µM with A549, 5.08 µM in the test with NCI-H1975 and 3.03 µM in the test with A-431.
`CCCC[N+](C)(CCCC)[C@H]1CC[C@@]2(C)C(=CC[C@H]3[C@@H]4C[C@@H]5O[C@]6(CC[C@@H](C)CO6)[C@@H](C)[C@@H]5[C@@]4(C)CC[C@@H]32)C1`: the IC50 in the test on ASPC1 was less than 5 µM; with HCT-116 it was 1.03 µM; in the test with A549 it was 2.42 µM; in the test on NCI-H1975, 6.39 µM; in the test on A-431 it was 3.87 µM.
Consider `CCCC[N+](C)(C)CCCCC(=O)O[C@H]1CC[C@@]2(C)C(=CC[C@H]3[C@@H]4C[C@@H]5O[C@]6(CC[C@@H](C)CO6)[C@@H](C)[C@@H]5[C@@]4(C)CC[C@@H]32)C1`, for which the IC50 in the test with ASPC1 came out at 2.77 µM; in the test with A549 it was 2.81 µM; in the test with NCI-H1975, 3.68 µM; with A-431 it was 3.11 µM.
`Cc1ccc2c(n1)C(=O)C(Cl)=C(O[C@H]1CC[C@@]3(C)C(=CC[C@H]4[C@@H]5C[C@@H]6O[C@H](CC[C@@H](C)CO[Si](C)(C)C(C)(C)C)[C@@H](C)[C@@H]6[C@@]5(C)CC[C@@H]43)C1)C2=O`: the IC50 stood at 3.55 µM with HepG2 and 9.69 µM in the test on HeLa.
With `C[C@@H]1CC[C@@]2(OC1)O[C@H]1C[C@H]3[C@@H]4CC=C5C[C@@H](OC(=O)CCCC[N+]6(CCO)CCOCC6)CC[C@]5(C)[C@H]4CC[C@]3(C)[C@H]1[C@@H]2C`, the IC50 in the test with ASPC1 amounted to 11.1 µM; in the test on A549, 12.6 µM; in the test with NCI-H1975 it was 3.36 µM; with A-431, 6.21 µM.
Take `C[C@@H](CO)CC[C@H]1O[C@H]2C[C@H]3[C@@H]4CC=C5C[C@@H](OC6=C(Cl)C(=O)c7ccccc7C6=O)CC[C@]5(C)[C@H]4CC[C@]3(C)[C@H]2[C@@H]1C`: the figures for the IC50 with HepG2 and in the test with HeLa were 3.85 µM and 3.7 µM, respectively.
With `C[C@@H]1CC[C@@]2(OC1)O[C@H]1C[C@H]3[C@@H]4CC=C5C[C@@H](OC(=O)CCCC[N+]6(CCO)CCCCC6)CC[C@]5(C)[C@H]4CC[C@]3(C)[C@H]1[C@@H]2C`, the IC50 in the test with ASPC1 is 6.07 µM; with A549 it was 4.68 µM; in the test with NCI-H1975 it was 1.68 µM; in the test with A-431 it was 4.14 µM.
As for `C[C@@H]1CC[C@@]2(OC1)O[C@H]1C[C@H]3[C@@H]4CC=C5C[C@@H]([N+](C)(CC6CC6)CC6CC6)CC[C@]5(C)[C@H]4CC[C@]3(C)[C@H]1[C@@H]2C`, the IC50 was 4.07 µM in the test with ASPC1; 1.12 µM with HCT-116; 2.69 µM with A549; 5.32 µM with NCI-H1975; 4.71 µM in the test with A-431.
With `C=CC[N+](CC=C)(CC=C)CCCCC(=O)O[C@H]1CC[C@@]2(C)C(=CC[C@H]3[C@@H]4C[C@@H]5O[C@]6(CC[C@@H](C)CO6)[C@@H](C)[C@@H]5[C@@]4(C)CC[C@@H]32)C1`, the IC50 with ASPC1 stood at 1.23 µM; with A549, 1.84 µM; in the test with NCI-H1975, 0.78 µM; in the test on A-431, 2.55 µM.
With `C=C[N+](C)(C=C)[C@H]1CC[C@@]2(C)C(=CC[C@H]3[C@@H]4C[C@@H]5O[C@]6(CC[C@@H](C)CO6)[C@@H](C)[C@@H]5[C@@]4(C)CC[C@@H]32)C1`, the concentration for half-maximal inhibition (IC50) in the test with ASPC1 was 4.06 µM; with HCT-116, 5 µM; in the test on A549, 6.64 µM; in the test with NCI-H1975, 5.96 µM; with A-431, 4.01 µM.
Taken in the same sequence, the figures for `C[C@@H]1CC[C@@]2(OC1)O[C@H]1C[C@H]3[C@@H]4CC=C5C[C@@H]([N+](C)(C/C=C/c6ccccc6)C/C=C/c6ccccc6)CC[C@]5(C)[C@H]4CC[C@]3(C)[C@H]1[C@@H]2C` were less than 5 µM, 0.34 µM, 9.86 µM, 5.73 µM and less than 2.5 µM.
As to `C[C@H](CC[C@H]1O[C@H]2C[C@H]3[C@@H]4CC=C5C[C@@H](OC6=C(Cl)C(=O)c7ccccc7C6=O)CC[C@]5(C)[C@H]4CC[C@]3(C)[C@H]2[C@@H]1C)COC1=C(Cl)C(=O)c2ccccc2C1=O`, the results for the IC50 in the test on HepG2 and in the test on HeLa were 1.76 µM and 6.27 µM, respectively.
`CC[N+](CC)(CC)CCCCC(=O)O[C@H]1CC[C@@]2(C)C(=CC[C@H]3[C@@H]4C[C@@H]5O[C@]6(CC[C@@H](C)CO6)[C@@H](C)[C@@H]5[C@@]4(C)CC[C@@H]32)C1`: the IC50 with ASPC1 was determined as 6.56 µM; in the test on A549, 2.52 µM; in the test on NCI-H1975, 3.23 µM; with A-431 it was 3.46 µM.
In the case of `C[C@@H]1CC[C@@]2(OC1)O[C@H]1C[C@H]3[C@@H]4CC=C5C[C@@H](OC(=O)CCCC[N+](C)(C)c6ccccc6)CC[C@]5(C)[C@H]4CC[C@]3(C)[C@H]1[C@@H]2C`, the IC50 in the test with ASPC1 was determined as 4.18 µM; in the test with A549 it was 6.63 µM; in the test on NCI-H1975, 4.05 µM; in the test with A-431 it was 3.52 µM.
Taken in the same sequence, the figures for `C[C@@H]1CC[C@@]2(OC1)O[C@H]1C[C@H]3[C@@H]4CC=C5C[C@@H](OC(=O)CCCC[N+]6(C)CCCC6)CC[C@]5(C)[C@H]4CC[C@]3(C)[C@H]1[C@@H]2C` were 2.15 µM, 4.47 µM, 3.44 µM and 4.05 µM.
